Assay results: US7432303B2, “Chalcone and its analogs as agents for the inhibition of angiogenesis and related disease states” (James and Emory University, priority 1999, dated 2008)

Test system: SVR cells
Assay: SVR cell assay: cell numbers counted at 48 hours, percent inhibition versus control
Format: cell-based, murine
Details: 10,000 SVR cells in 24 well dish, counted at 48 hours; for inhibition at 1 µg/mL / inhibition at 3 µg/mL / inhibition at 6 µg/mL / inhibition at 9 µg/mL: Mus musculus; for inhibition at 1 µg/mL / Percent Inhibition at a Specified Density (μg/ml): 1: 1 μg/ml; for inhibition at 1 µg/mL: read-out: Percent Inhibition at a Specified Density (μg/ml): 1; for inhibition at 3 µg/mL / Percent Inhibition at a Specified Density (μg/ml): 3: 3 μg/ml; for inhibition at 3 µg/mL: read-out: Percent Inhibition at a Specified Density (μg/ml): 3; for inhibition at 6 µg/mL / Percent Inhibition at a Specified Density (μg/ml): 6: 6 μg/ml; for inhibition at 6 µg/mL: read-out: Percent Inhibition at a Specified Density (μg/ml): 6; for inhibition at 9 µg/mL / Percent Inhibition at a Specified Density (μg/ml): 9: 9 μg/ml; for inhibition at 9 µg/mL: read-out: Percent Inhibition at a Specified Density (μg/ml): 9
Experimental: In the case of testing the anti-angiogenic/anti-cancer activity of compounds according to the present invention, an assay based on SVR cells may be employed. […] The cell numbers are counted and compared against controls. Percent inhibition is readily determined from the data obtained.
10,000 SVR cells were seeded in a 24 well dish [Arbiser, et al., J. Am. […] The cell numbers were counted at 48 hours.

| SMILES | inhibition at 1 µg/mL [%] | inhibition at 3 µg/mL [%] | inhibition at 6 µg/mL [%] | inhibition at 9 µg/mL [%] | Percent Inhibition at a Specified Density (μg/ml): 1 [%] | Percent Inhibition at a Specified Density (μg/ml): 3 [%] | Percent Inhibition at a Specified Density (μg/ml): 6 [%] | Percent Inhibition at a Specified Density (μg/ml): 9 [%] |
| --- | --- | --- | --- | --- | --- | --- | --- | --- |
| Cc1ccc(C(=O)/C=C/c2ccc(Cl)cc2)cc1 [Compound 30, 4-Chloro-4′-methylchalcone] | 22.3 | 24.5 | 46.5 | – | – | – | – | – |
| O=C(/C=C/c1c(Cl)cccc1Cl)c1ccccc1 [Compound 31, 2,6-Dichlorochalcone] | – | 92.9 | 97.5 | 97.9 | – | – | – | – |
| O=C(/C=C/c1c(Cl)cccc1Cl)c1c(Cl)cccc1Cl [Compound 32, 2,2′,6,6′-Tetrachlorochalcone] | – | 74.9 | 97 | 98.1 | – | – | – | – |
| O=C(/C=C/c1ccccc1)c1c(Cl)cccc1Cl [Compound 33, 2′,6′-Dichlorochalcone] | 2.23 | 51.1 | 88.7 | – | – | – | – | – |
| O=C(/C=C/c1c(F)c(F)c(F)c(F)c1F)c1c(F)c(F)c(F)c(F)c1F [Compound 34, 2,2′,3,3′,4,4′,5,5′,6,6′-Decafluorochalcone] | 31.1 | 88.6 | 88.6 | – | – | – | – | – |
| O=C(/C=C/c1c(F)c(F)c(F)c(F)c1F)c1ccccc1 [Compound 35, 2,3,4,5,6-Pentafluorochalcone] | 0 | 0 | 0 | – | – | – | – | – |
| O=C(/C=C/c1ccccc1)c1c(F)c(F)c(F)c(F)c1F [Compound 36, 2′,3′,4′,5′,6′-Pentafluorochalcone] | 6.6 | 55.6 | 88.7 | – | – | – | – | – |
| COc1cccc(OC)c1/C=C/C(=O)c1c(OC)cccc1OC [Compound 37, 2,2′,6,6′-Tetramethoxychalcone] | 36.2 | 49.2 | 39.2 | – | – | – | – | – |
| COc1cccc(OC)c1C(=O)/C=C/c1ccccc1 [Compound 38, 2′,6′-Dimethoxychalcone] | 25.8 | 39.8 | 63.5 | – | – | – | – | – |
| COc1cccc(OC)c1/C=C/C(=O)c1ccccc1 [Compound 39, 2,6-Dimethoxychalcone] | 31.8 | 56.4 | 60.8 | – | – | – | – | – |
| COc1cccc(OC)c1C(=O)/C=C/c1c(Cl)cccc1Cl [Compound 40, 2,6-Dichloro-2′,6′-dimethoxychalcone] | 23.2 | 43.7 | 52.3 | – | – | – | – | – |
| O=C(/C(Br)=C/c1ccccc1)c1ccccc1 [Compound 41, α-Bromo-Z-chalcone] | – | – | – | – | 57.2 | 75.7 | 79.8 | – |
| O=C(C=Cc1ccco1)c1ccco1 [Compound 43, 1,3-Bis(2-furyl)propenone] | – | – | – | – | 7.7 | 8.1 | 12.0 | – |
| O=C(C=Cc1ccccc1)c1ccco1 [Compound 44, 1-(2-Furyl)-3-phenylpropenone] | – | – | – | – | 28.2 | 57.7 | 90.2 | – |
| O=C(C=Cc1ccco1)c1ccccc1 [Compound 45, 3-(2-Furyl)-1-phenylpropenone] | – | – | – | – | 9.8 | 1.0 | 0.0 | – |
| O=C(C=Cc1ccccn1)c1ccccn1 [Compound 46, 1,3-Di(2-pyridyl)propenone] | – | – | – | – | 0.0 | 53.4 | 85.2 | – |
| O=C(C=Cc1ccccn1)c1ccccc1 [Compound 47, 1-Phenyl-3-(2-pyridyl)propenone] | – | – | – | – | 40.7 | 89.1 | 96.9 | – |

| SMILES | inhibition at 1 µg/mL [%] | inhibition at 3 µg/mL [%] | inhibition at 6 µg/mL [%] | inhibition at 9 µg/mL [%] | Percent Inhibition at a Specified Density (μg/ml): 1 [%] | Percent Inhibition at a Specified Density (μg/ml): 3 [%] | Percent Inhibition at a Specified Density (μg/ml): 6 [%] | Percent Inhibition at a Specified Density (μg/ml): 9 [%] |
| --- | --- | --- | --- | --- | --- | --- | --- | --- |
| O=C(C=Cc1cccnc1)c1ccccc1 [Compound 48, 1-Phenyl-3-(3-pyridyl)propenone] | – | – | – | – | 30.0 | 31.7 | 83.2 | – |
| O=C(C=Cc1ccccc1)c1ccc[nH]1 [Compound 49, 3-Phenyl-1-(2-pyrrolyl)propenone] | – | – | – | – | 8.3 | 11.4 | 19.4 | – |
| O=C(C=Cc1ccc[nH]1)c1ccccc1 [Compound 50, 1-Phenyl-3-(2-pyrrolyl)propenone] | – | – | – | – | 19.0 | 21.5 | 0.0 | – |
| O=C(C=Cc1ccccc1)c1c2ccccc2cc2ccccc12 [Compound 51, 1-(9-Anthryl)-3-phenylpropenone] | – | – | – | – | 25.5 | 46.4 | 69.0 | – |
| O=C(C=Cc1c2ccccc2cc2ccccc12)c1ccccc1 [Compound 52, 3-(9-Anthryl)-1-phenylpropenone] | – | – | – | – | 54.6 | 53.5 | 71.3 | – |
| O=C(C=Cc1c2ccccc2cc2ccccc12)c1c2ccccc2cc2ccccc12 [Compound 53, 1,3-Di(9-Anthryl)propenone] | – | – | – | – | 0.0 | 0.0 | 4.7 | – |
| O=C(C=Cc1ccc2ccccc2c1)c1c2ccccc2cc2ccccc12 [Compound 54, 1-(9-Anthryl)-3-(2-naphthyl)propenone] | – | – | – | – | 52.5 | 57.3 | 48.1 | – |
| O=C(C=Cc1ccccc1)c1cccc2ccccc12 [Compound 58, 1-(1-Naphthyl)-3-phenylpropenone] | – | – | – | – | 10.9 | 33.2 | 68.0 | – |
| O=C(C=Cc1c(Cl)cccc1Cl)c1ccc2ccccc2c1 [Compound 59, 3-(2,6-Dichlorophenyl)-1-(2-naphthyl)propenone] | – | – | – | – | – | 81.0 | 97.4 | 98.3 |
| O=C(C=Cc1ccc2ccccc2c1)c1ccc2ccccc2c1 [Compound 60, 1,3-Di(2-naphthyl)propenone] | – | – | – | – | – | 13.2 | 20.3 | 27.1 |
| O=C(C=Cc1ccccc1)c1ccc2ccccc2c1 [Compound 61, 1-(2-Naphthyl)-3-phenylpropenone] | – | – | – | – | – | 92.2 | 94.7 | 96.0 |
| O=C(C=Cc1ccc2ccccc2c1)c1ccccc1 [Compound 62, 3-(2-Naphthyl)-1-phenylpropenone] | – | – | – | – | – | 29.5 | 44.3 | 69.1 |
| O=C(C=Cc1cccc2ccccc12)c1ccc2ccccc2c1 [Compound 63, 1-(2-Naphthyl)-3-(1-naphthyl)propenone] | – | – | – | – | 0.0 | 24.9 | 50.3 | – |
| O=C(C=Cc1ccc2ccccc2c1)c1cccc2ccccc12 [Compound 64, 1-(1-Naphthyl)-3-(2-naphthyl)propenone] | – | – | – | – | 0.0 | 22.4 | 52.0 | – |
| O=C(C=Cc1cccc2ccccc12)c1cccc2ccccc12 [Compound 65, 1,3-Di(1-naphthyl)propenone] | – | – | – | – | 12.0 | 55.5 | 60.3 | – |
| O=C1C(=Cc2ccccc2)COc2ccccc21 [Compound 66, 3-Benzylidene-4-chromanone] | 12.3 | 23.8 | 54.3 | – | – | – | – | – |
